Reference: patent publication US20140038959A1, “METHODS OF TREATING TUMORS” (Genentech, Inc., priority 2011, published 2014)
Like-named read-outs stand apart in the source and are kept apart here. Numbered stars: 1 amine (or outer) side, 2 acyl side, 3 side chain; on linkers, the order of the positions; unused ones are H or OH. Bridge positions count the residues as written; N and C are the ends. Square brackets hold non-standard residues; d marks the D form. Peptide text beside a SMILES is read from it. I, II: the chains in the order shown. Hexamethylenediamine = C(CCCN[*:2])CCN[*:1]; Dip = N[C@H](C(=O)O)C(c1ccccc1)c1ccccc1; Chg = N[C@H](C(=O)O)C1CCCCC1; NMeA = CN[C@@H](C)C(=O)O

Experiments:
EBC-1 cells [1] = assay: cell killing by pharmacological PAK or Rac1 inhibitors combined with IAP inhibition; type: cell-based, human; details: pharmacological inhibitors of PAK or Rac1 catalytic activity; FIG. 7A
From the text: The prosurvival activity of IAP proteins is antagonized by the second mitochondrial activator of caspases (SMAC) (C. Du et al., Cell 2000 102:33-42; A. M. Verhagen, et al. Cell 2000 102:43-53) and a number of antagonists have been described that mimic SMAC amino-terminal peptides to disrupt the association of IAP with SMAC and activated caspase-9 (K. Zobel et al., ACS Chem. Biol. 2006 1:525-533; E. Varfolomeev et al., Cell 2007 131:669-681). In particular, BV6 (C. Ndubaku et al., Future Med. Chem. 2009 1(8):1509) represents one such class of small molecule antagonist that binds to baculovirus TAP repeat (BIR) domains and promotes rapid auto-ubiquitination and proteasomal degradation of c-TAP 1 and cIAP-2 (Zobel supra). Consistent with the small molecule screening data, strong combinatorial activity was confirmed for dual inhibition of PAK1 and IAP in EBC-1 cells (FIG. 5A). […] To further explore this apparent synergy we investigated possible molecular mechanisms of PAK1 and IAP inhibition on the induction of apoptosis. […] Lastly, additional NSCLC cell lines, including those that are only minimally responsive to the activity of either single agent, were examined for anti-tumor efficacy resulting from combined inhibition of PAK1 and IAP.

[2] = system: SKMES-1, Calu-6, Cal-120 cells; assay: CellTiter-Glo viability after PAK1 and PAK2 siRNA plus MEK and PI3K inhibitors; type: cell-based, human; details: with PAK1 and PAK2 siRNA, 3 days
Experimental: FIG. 11—Combinatorial effect of PAK1, PAK2, MEK and PI3K inhibition on tumor cell viability. CellTiter-Glo® (CTG) assays of cellular viability were performed following PAK1 and PAK2 siRNA transfection and compound treatment for 3 days, as indicated.
Taken together, these studies provide strong preclinical support that breast and NSCLC may provide several opportunities for rational combination therapies with PAK1 inhibitors. In one embodiment of the present invention there is provided a method of treating tumors comprising contacting the tumor with a PAK 1 inhibitor and a second anti-hyperproliferative compound.

EBC1-shPAK1 cells = assay: pharmarray viability screen, 200 compound library, with or without PAK1 knockdown (CellTiter-Glo); type: cell-based, human; details: for EC50: Homo sapiens
MDA-MB-175 cells = assay: Annexin V/PI fluorescence-activated cell sorting after IPA-3 for 48 h; type: cell-based, human
From the text: FIG. 1-Analysis of PAK1 genomic amplification and functional role in human breast tumors. (A) Genomic Identification of Significant Targets in Cancer (GISTIC) analysis of 11q13 copy number gains. Points are proportionately spaced and arranged in genome order. Vertical line represents chromosome location of the PAK1 gene. […] (B) PAK1 DNA copy and mRNA expression dot plot depicts the relationship of DNA copy number to the 226507 at Affymetrix MAS 5.0 signal for 51 tumor samples. The Pearson correlation statistic (0.75) is shown for the plot. The solid line represents the best-fit line through these points. (C) Increasing proportion of Annexin V-positive cells following knockdown of PAK1 expression is shown for 3 breast cancer cell lines with focal PAK1 genomic amplification, MDA-MB-175, HCC1500 and MDA-MB-134 IV. Cells were harvested 3-5 days following transient transfection of pooled siRNA oligonucleotides. (D) Fluorescence-activated cell sorting analysis for Annexin V/PI. MDA-MB-175 cells were cultured in the presence or absence of IPA-3 for 48 h. Annexin V/PI staining was then done to assess apoptosis/necrosis. […]
To ascertain the role of PAK1 in cell survival, the quantity of cytoplasmic histone-associated DNA fragments was quantified using the Cell Death Detection ELISA Plus kit from Roche (Mannheim, Germany). […]

EBC-1 cells [3] = assay: PF-3758309 with BV6, in vitro combination efficacy, 4-day CellTiterGlo viability assay (Calcusyn); type: cell-based, human; details: Chou and Talalay method, CI ≦0.3 = strong synergy
Experimental: FIG. 10—Combination of ATP-competitive pan-PAK inhibitor PF-3758309 (B. W. Murray et al. Proc. Nat. Acad. Sci. USA 2010 107(20):9446-9471 and IAP small molecule antagonist results in apoptosis of squamous NSCLC cells. (A) Catalytic inhibition of PAK1 via PF-3758309 treatment was tested with BV6 for in vitro combination efficacy in EBC-1 cells using a 4-day CellTiterGlo viability assay. Calcusyn, a program utilizing the Chou and Talalay (Chou T C, Talalay P. Quantitative analysis of dose-effect relationships: the combined effects of multiple drugs or enzyme inhibitors. Adv. Enzyme Regul. 1984; 22:27-55) method of calculating synergy, was used to calculate the combination index and, thus, determine the level of synergy. Strong synergy, as indicated by combination index (CI) values ≦0.3, was observed (CI=0.113).
A determination of a synergistic interaction between a PAK1 inhibitor and a second anti-hyperproliferative agent may be based on the results obtained from the assays described herein. The combinations provided by this invention have been evaluated in several assay systems, and the data can be analyzed utilizing a standard program for quantifying synergism, additivism, and antagonism among anticancer agents. The program preferably utilized is that described by Chou and Talalay, in “New Avenues in Developmental Cancer Chemotherapy,” Academic Press, 1987, Chapter 2. […]

[4] = system: Cells transfected with XIAP-specific siRNA; assay: Cell Titer Glo viability after XIAP siRNA and PAK SMI; type: cell-based; details: XIAP siRNA 48 h, then PAK SMI 72 h; p<0.0001
Experimental: Cells were transfected with non-targeting control (NTC) or XIAP-specific siRNA oligonucleotides for 48 h prior to treatment with DMSO or PAK SMI as indicated for an additional 72 h. Cell viability was determined via Cell Titer Glo assay and results represent mean±standard deviation from three experiments. (B) Combined antagonism of XIAP and PAK1 promotes efficient cleavage of PARP and caspase-3. XIAP siRNA oligonucleotides were transfected for 72 h prior to treatment with DMSO or […] PAK SMI.

NCI-H441 = assay: Cell Titer Glo viability after PAK1 siRNA and BV6; type: cell-based, human; details: transient PAK1 siRNA followed by 5 μM BV6
Experimental: (§1) FIG. 7—(A) Combinatorial accumulation of cleaved PARP and caspase-3 by PAK1 and IAP antagonism. Cells were incubated with Dox and […] for indicated time points, lysed and then used for Western blot analysis (B) Dual PAK1 and IAP inhibition results in a synergistic decrease in viability of SK-MES-1 (squamous subtype) and NCI-H441 (adenocarcinoma subtype) NSCLC cells. Cellular ATP consumption was determined via Cell Titer Glo assay following transient siRNA-mediated inhibition of PAK1 and 5 μM BV6 treatment as indicated.
(§2) The prosurvival activity of IAP proteins is antagonized by the second mitochondrial activator of caspases (SMAC) (C. Du et al., Cell 2000 102:33-42; A. M. Verhagen, et al. Cell 2000 102:43-53) and a number of antagonists have been described that mimic SMAC amino-terminal peptides to disrupt the association of IAP with SMAC and activated caspase-9 (K. Zobel et al., ACS Chem. Biol. 2006 1:525-533; E. Varfolomeev et al., Cell 2007 131:669-681). In particular, BV6 (C. Ndubaku et al., Future Med. Chem. 2009 1(8):1509) represents one such class of small molecule antagonist that binds to baculovirus TAP repeat (BIR) domains and promotes rapid auto-ubiquitination and proteasomal degradation of c-TAP 1 and cIAP-2 (Zobel supra). […]

SK-MES-1 = assay: Cell Titer Glo viability after PAK1 siRNA and BV6; type: cell-based, human; details: transient PAK1 siRNA followed by 5 μM BV6
Experimental: as §1, §2

[5] = EBC-1-shPAK1 cells without PAK1 knockdown, 72 hr compound treatment, read-out: Single agent EC50
[6] = PAK1 knockdown shRNA (300 ng/mL doxycycline 3 days prior) and compound, 72 hr, read-out: Combo PAKi EC50
[7] = single agent vs combination with PAK1 knockdown
[8] = 72 h, read-out: Single agent EC50

**Q.** `CCN(CC)CCCC(C)Nc1nc(C)cc(Nc2ccc3nc(C)cc(N)c3c2)n1` (stereo not drawn) [NSC23766] was tested. Which “cell killing combined with IAP inhibition” value (EBC-1 cells [1]) did it give?
**A.** The value was “enhanced cell killing”.

**Q.** For `CS(=O)(=O)N1CCN(Cc2cc3nc(-c4cccc5[nH]ncc45)nc(N4CCOCC4)c3s2)CC1` [GDC-0941], which “combinatorial efficacy, reduced cellular viability” value [2] is on record?
**A.** The value was “Combinatorial efficacy”.

**Q.** For `Cc1nc(Nc2ncc(C(=O)Nc3c(C)cccc3Cl)s2)cc(N2CCN(CCO)CC2)n1` [dasatinib], which EC50 (EBC1-shPAK1 cells; [5]) is on record?
**A.** Its EC50 is 8.29 µM.

**Q.** What about the EC50 (EBC1-shPAK1 cells; [6]) of the same compound?
**A.** Its EC50 is 1.53 µM.

**Q.** What about the “Fold change in EC50” value (EBC1-shPAK1 cells; [7]) of the same compound?
**A.** Its value is 5.43.

**Q.** `O=C1[O][Pt]2([NH][C@@H]3CCCC[C@H]3[NH]2)[O]C1=O` [oxaliplatin] was tested. Which “Fold change in EC50” value (EBC1-shPAK1 cells) did it give?
**A.** The value was 4.23.

**Q.** `CN(C)c1nc(N(C)C)nc(N(C)C)n1` [altretamine] was tested. Which EC50 (EBC1-shPAK1 cells; [5]) did it give?
**A.** Its EC50 is ≥ 20 µM.

**Q.** And the EC50 (EBC1-shPAK1 cells; [6])?
**A.** The EC50 was 3.94 µM.

**Q.** What about the “Fold change in EC50” value (EBC1-shPAK1 cells; [7]) of the same compound?
**A.** Its value is 5.07.

**Q.** `COc1cc2c(Nc3ccc(Br)cc3F)ncnc2cc1OCC1CCN(C)CC1` [ZD6474] was tested. Which EC50 (EBC1-shPAK1 cells; [5]) did it give?
**A.** Its EC50 is ≥ 20 µM.

**Q.** What about the EC50 (EBC1-shPAK1 cells; [6]) of the same compound?
**A.** Its EC50 is 6.88 µM.

**Q.** And the “Fold change in EC50” value (EBC1-shPAK1 cells; [7])?
**A.** Its value is 2.91.

**Q.** For `N#CC(=C(/N)Sc1ccccc1N)/C(C#N)=C(\N)Sc1ccccc1N` [U0126], which “Fold change in EC50” value (EBC1-shPAK1 cells) is on record?
**A.** The value was 8.45.

**Q.** What about the EC50 (EBC1-shPAK1 cells; [8]) of the same compound?
**A.** Its EC50 is 19.5 µM.

**Q.** What about the EC50 (EBC1-shPAK1 cells; read-out: Combo PAKi EC50) of the same compound?
**A.** The EC50 was 2.3 µM.

**Q.** How did the “Fold change in EC50” value (EBC1-shPAK1 cells) turn out when `C#Cc1cccc(Nc2ncnc3cc(OCCOC)c(OCCOC)cc23)c1` [erlotinib] was run?
**A.** Its value is 15.02.

**Q.** And the EC50 (EBC1-shPAK1 cells; [8])?
**A.** The EC50 was ≥ 20 µM.

**Q.** And the EC50 (EBC1-shPAK1 cells; read-out: Combo PAKi EC50)?
**A.** Its EC50 is 1.56 µM.

**Q.** With `Oc1ccc2ccccc2c1SSc1c(O)ccc2ccccc12` [IPA-3] as the compound, how does the “induction of apoptosis, fold increase (Annexin-V/propidium iodide)” value (MDA-MB-175 cells) read?
**A.** The value was 7 fold.

**Q.** What about the “cell killing combined with IAP inhibition” value (EBC-1 cells [1]) of the same compound?
**A.** The value was “enhanced cell killing”.

**Q.** With `O=c1[nH]c2ccccc2n1C1CCN(Cc2ccc(-c3nc4cc5[nH]cnc5cc4nc3-c3ccccc3)cc2)CC1` [Akt inhibitor VIII] as the compound, how does the “Fold change in EC50” value (EBC1-shPAK1 cells; [7]) read?
**A.** The value was 1.58.

**Q.** `Cc1nc(Nc2n[nH]c3c2CN(C(=O)N[C@H](CN(C)C)c2ccccc2)C3(C)C)c2sccc2n1` [PF-3758309] was tested. Which “combination index (CI)” value (EBC-1 cells [3]) did it give?
**A.** Its value is 0.113.

**Q.** What about the “cell killing combined with IAP inhibition” value (EBC-1 cells [1]) of the same compound?
**A.** Its value is “enhanced cell killing”.

**Q.** What about the “proapoptotic activity with XIAP down-regulation” value [4] of the same compound?
**A.** Its value is “potentiates the proapoptotic activity”.

**Q.** `CN[C@@H](C)C(=O)N[C@H](C(=O)N1CCC[C@H]1C(=O)N[C@H](C(=O)NCCCCCCNC(=O)[C@@H](NC(=O)[C@@H]1CCCN1C(=O)[C@@H](NC(=O)[C@H](C)NC)C1CCCCC1)C(c1ccccc1)c1ccccc1)C(c1ccccc1)c1ccccc1)C1CCCCC1` [BV6] (I: H-[NMeA][Chg]P[Dip] / II: H-[NMeA][Chg]P[Dip]; linker I:C-II:C via Hexamethylenediamine) was tested. Which “Fold change in EC50” value (EBC1-shPAK1 cells; [7]) did it give?
**A.** Its value is 57.54.

**Q.** And the cell viability (NCI-H441)?
**A.** The cell viability was “significant reduction”.

**Q.** And the cell viability (SK-MES-1)?
**A.** The cell viability was “significant reduction”.

**Q.** What does the source list for `CS(=O)(=O)CCNCc1ccc(-c2ccc3ncnc(Nc4ccc(OCc5cccc(F)c5)c(Cl)c4)c3c2)o1` [lapatinib]?
**A.** EC50 (EBC1-shPAK1 cells; [5]): 6.31 µM; EC50 (EBC1-shPAK1 cells; [6]): 0.86 µM; Fold change in EC50 (EBC1-shPAK1 cells; [7]): 7.34
